Two compounds from patent publication US9649294B2, “Glucagon receptor antagonist compounds, compositions containing such compounds and methods of use” (Merck Sharp & Dohme Corp., priority 2013, dated 2017) can be followed below.

A short description of data set [1]: Pharmacokinetic study in dog. The class given is in vivo, dogs. The conditions noted are these: for MRT / half-life: PK study (IV 0.5 mg/kg, oral 2 mg/kg); for MRT: read-out: MRT, mean residence time; for half-life: read-out: T1/2, terminal half-life (converted). The protocol:
(§1) Intravenous (IV) PK studies were conducted at a dose of 1 mg/kg in hGCGR mice and rats and 0.5 mg/kg in dogs and rhesus monkeys. The IV doses were formulated in ethanol:PEG400:water (20:30:50 v/v/v). Oral PK studies were conducted at a dose of 2 mg/kg in mice, rats, dogs and monkeys. The oral doses were formulated in ethanol:PEG400:water (20:30:50 v/v/v) for dosing in mice and rats and in 0.5% methylcellulose in dogs and monkeys.
(§2) Plasma was prepared for analysis by protein precipitation with acetonitrile. Plasma concentrations were determined by LC-MS/MS using ABI Sciex API 4000 or 5000 mass spectrometers operated in atmospheric pressure chemical ionization mode with multiple-reaction monitoring.
(§3) Pharmacokinetic parameters were calculated with a non-compartmental model using Watson software (Watson Software, Thermo Fisher, Waltham, Mass., USA). The area under the plasma concentration versus time curve from 0 to 24 h (AUC0-24) was determined using linear trapezoidal interpolation in the ascending slope and logarithmic trapezoidal interpolation in the descending slope. The portion of the AUC from the last measurable concentration to infinity ([…]) was estimated by Ct/kel, where Ct represents the last measurable concentration and kel is the elimination rate constant. The latter was determined from the concentration versus time curve at the terminal phase by linear regression of the semilogarithmic plot. Oral bioavailability (F) was estimated as the AUC0-inf ratio following oral and i.v. administration normalized for differences in dose. The apparent half-life (t1/2) was estimated from the slope of the terminal phase of the log plasma concentration-time curve. MRT, the average time a compound molecule resides in the body, is calculated with the following equation: MRT=AUMC/AUC. In this equation AUMC is the area under the first moment curve and is determined as the area under the curve of a plot of the product of concentration and time versus time. AUC is equal to AUC0-inf.

In data set [2] the target is T1, human glucagon receptor (Homo sapiens, UniProt P47871).
T1 construct: expressed in transfected cells; host or cells: CHO cells
The data set is described as follows: Glucagon receptor binding assay (125I-glucagon, SPA, CHO cell membranes). The settings on record: CHO cell membranes expressing cloned human glucagon receptor. The method, then: A stable CHO (Chinese hamster ovary) cell line expressing cloned human glucagon receptor was maintained as described (Chicchi et al. J Biol Chem 272, 7765-9(1997); Cascieri et al. J_Biol Chem 274, 8694-7(1999)). […] After 4-12 hours incubation at room temperature, the radioactivity bound to the cell membranes was determined in a radioactive emission detection counter (Wallac-Microbeta). Data was analyzed using the software program Prism from GraphPad. IC50 values were calculated using non-linear regression analysis assuming single site competition.

Data set [3] is described as follows: Pharmacokinetic study in rhesus monkey. The conditions noted are these: for MRT / half-life: PK study (IV 0.5 mg/kg, oral 2 mg/kg); for MRT: read-out: MRT, mean residence time; for half-life: read-out: T1/2, terminal half-life (converted). The format is in vivo, rhesus monkeys. The method, then:
as §1, §2, §3

Data set [4] concerns the target T1, human glucagon receptor. Kind of data set: Inhibition of glucagon-stimulated intracellular cAMP formation. The class given is cell-based. The settings on record: CHO cells expressing human glucagon receptor; glucagon 250 pM. The protocol: Exponentially growing CHO cells expressing human glucagon receptor were harvested with the aid of enzyme-free dissociation media (Specialty Media), pelleted at low speed, and re-suspended in the Cell Stimulation Buffer included in the Flash Plate cAMP kit (New England Nuclear, SMP0004A). The adenylate cyclase assay was setup as per manufacturer instructions. Briefly, compounds were diluted from stocks in DMSO and added to cells at a final DMSO concentration of 5%. Cells prepared as above were preincubated in flash plates coated with anti-cAMP antibodies (NEN) in presence of compounds or DMSO controls for 30 minutes, and then stimulated with glucagon (250 pM) for an additional 30 minutes. The cell stimulation was stopped by addition of equal amount of a detection buffer containing lysis buffer as well as ^125I-labeled cAMP tracer (NEN). After 3 hours of incubation at room temperature the bound radioactivity was determined in a liquid scintillation counter (TopCount-Packard Instruments). Basal activity (100% inhibition) was determined using the DMSO control while 0% inhibition was defined at the amount of pmol cAMP produced by 250 pM glucagon.

Data set [5] can be described thus: Pharmacokinetic study in rat. The class given is in vivo, rats. The conditions noted are these: for MRT / half-life: PK study (IV 1 mg/kg, oral 2 mg/kg); for MRT: read-out: MRT, mean residence time; for half-life: read-out: T1/2, terminal half-life (converted). The protocol:
as §1, §2, §3

Data set [6] in a line: Pharmacokinetic study in mouse. The class given is in vivo, hGCGR mice. The settings on record: for MRT / half-life: PK study (IV 1 mg/kg, oral 2 mg/kg); for MRT: read-out: MRT, mean residence time; for half-life: read-out: T1/2, terminal half-life (converted). The protocol:
as §1, §2, §3

T1 sequence (P47871 26-477): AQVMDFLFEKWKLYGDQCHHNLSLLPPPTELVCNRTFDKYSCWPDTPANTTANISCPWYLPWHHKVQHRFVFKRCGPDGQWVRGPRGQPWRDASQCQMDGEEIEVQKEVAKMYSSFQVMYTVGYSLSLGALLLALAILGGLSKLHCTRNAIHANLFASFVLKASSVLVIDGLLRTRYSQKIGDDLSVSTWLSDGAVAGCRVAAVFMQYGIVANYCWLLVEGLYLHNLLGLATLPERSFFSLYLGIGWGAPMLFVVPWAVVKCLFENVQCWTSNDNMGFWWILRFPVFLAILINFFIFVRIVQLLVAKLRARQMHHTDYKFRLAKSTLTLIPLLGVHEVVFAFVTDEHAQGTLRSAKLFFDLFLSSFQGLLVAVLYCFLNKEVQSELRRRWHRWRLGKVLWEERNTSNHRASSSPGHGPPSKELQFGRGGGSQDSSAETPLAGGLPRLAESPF

As to `CCC[C@H](c1ccc(C(=O)NCCC(=O)O)cc1)[C@H](c1ccc(OC(F)(F)F)cc1)c1c[nH]c2c(F)cc(Cl)cc12` [Example 1, 3-(4-((1R,2S)-1-(5-Chloro-7-Fluoro-1H-Indol-3-yl)-1-(4-(Trifluoromethoxy)Phenyl)Pentan-2-yl)Benzamido)Propanoic Acid], the figures for the “MRT longer compared to MK-3577” value in data set [1] and in data set [3] were “ca. 3.8 fold” and around 3.4 fold, respectively. Also, the “T1/2 longer compared to MK-3577” value was “ca. 3.3 fold” in data set [1], around 2.2 fold in data set [3], around 1.5 fold in data set [5] and around 2.9 fold in data set [6]. Further, the “Oral AUCnorm(0-∞)” value in data set [1] (oral 2 mg/kg, dose-normalized) came out at 16 µM·kg·h/mg; in data set [3] (oral 2 mg/kg, dose-normalized), 6 µM·kg·h/mg; in data set [5] (oral 2 mg/kg, dose-normalized) it was 1.2 µM·kg·h/mg; in data set [6] (oral 2 mg/kg, dose-normalized), 8.0 µM·kg·h/mg. In addition, the clearance in data set [1] (plasma, IV 0.5 mg/kg, read-out: Clp, plasma clearance) is 0.63 mL/min/kg; in data set [3] (rhesus monkey, plasma, IV 0.5 mg/kg, read-out: Clp, plasma clearance), 3 mL/min/kg; in data set [5] (plasma, IV 1 mg/kg, read-out: Clp, plasma clearance), 18 mL/min/kg; in data set [6] (hGCGR, plasma, IV 1 mg/kg, read-out: Clp, plasma clearance), 3.5 mL/min/kg. Also, the Vd turned out to be 0.72 L/kg in data set [1] (plasma, IV 0.5 mg/kg, read-out: Vdss, volume of distribution at steady state); 2 L/kg in data set [3] (rhesus monkey, plasma, IV 0.5 mg/kg, read-out: Vdss, volume of distribution at steady state); 3.2 L/kg in data set [5] (plasma, IV 1 mg/kg, read-out: Vdss, volume of distribution at steady state); 2.2 L/kg in data set [6] (hGCGR, plasma, IV 1 mg/kg, read-out: Vdss, volume of distribution at steady state). Also, the MRT is 20 h in data set [1] (plasma); 11 h in data set [3] (rhesus monkey, plasma); 2.9 h in data set [5] (plasma); 10 h in data set [6] (hGCGR, plasma). For the same compound, the half-life in data set [1] (plasma) is 16 h; in data set [3] (rhesus monkey, plasma), 11 h; in data set [5] (plasma) it was 2.2 h; in data set [6] (hGCGR, plasma), 8.2 h. The bioavailability in data set [1] (plasma, oral 2 mg/kg vs IV 0.5 mg/kg, read-out: F, oral bioavailability) was 30%; in data set [3] (rhesus monkey, plasma, oral 2 mg/kg vs IV 0.5 mg/kg, read-out: F, oral bioavailability) it was 47%; in data set [5] (plasma, oral 2 mg/kg vs IV 1 mg/kg, read-out: F, oral bioavailability) it was 76%; in data set [6] (hGCGR, plasma, oral 2 mg/kg vs IV 1 mg/kg, read-out: F, oral bioavailability), 87%. Moreover, the IC50 on human glucagon receptor [2] was 0.24 nM; against human glucagon receptor [4] it was 19.2 nM. Further, the “MRT compared to MK-3577” value was “over 3 fold” in data set [5] and around 4.5 fold in data set [6].
For the compound `CCC[C@H](c1ccc(C(=O)NCCC(=O)O)cc1)[C@H](c1ccc(Cl)cc1)c1c[nH]c2c(F)cc(C)cc12` [MK3577, reference compound], the MRT was determined as 5.2 h in data set [1] (plasma); 3.2 h in data set [3] (rhesus monkey, plasma); 0.9 h in data set [5] (plasma); 2.2 h in data set [6] (hGCGR, plasma). In addition, the half-life in data set [1] (plasma) was 4.9 h; in data set [3] (rhesus monkey, plasma), 5.1 h; in data set [5] (plasma), 1.4 h; in data set [6] (hGCGR, plasma), 2.8 h.
